# Experimental data from patent EP1433789A1, “Pyrrolopyrazines and their use as selective apoptosis inducers” (Aponetics AG, priority 2002, dated 2004).
# Key:
# Type in all cases: cell-based, human
# SKMEL 1 = assay: Hoechst 33342 nuclear staining (Table 3); set-up: key: 0 relating to no activity; 1 relating to weak activity comprising less than 50% of the cells; score 2 relating to strong activity comprising more than 50% of the cells
# Method in brief: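 Adherent cells (3-5×10^3, pre-spread 24 h) or suspension cells (8-10×10^3) treated with compounds at 10, 3, 1 and 0.3 µM for 24 or 48 h, then Hoechst 33342 stained for 30 min. Apoptotic nuclear morphology scored by fluorescence microscopy: 0 none, 1 weak (<50% cells), 2 strong (>50% cells).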
# K562 = assay: Caspase dependencies (Hoechst 33342 readout with zVAD / zFA); set-up: key: 0: no effect; 1: weak effect; 2: strong effect
# Protocol: (§1) This assay is performed in 96 well tissue culture plates. Appropriate number of cells (adherent cells: 3 - 5*10^3, suspension cells: 8 - 10*10^3) are being seeded out in 80 µl complete medium. Adherent cells are incubated for 24 h for proper spreading out before addition of test compounds while suspension cells are immediately treated with test compounds after seeding out. The test compounds are added in 20 µl complete medium containing max 5% DMSO. The final compound concentrations in the assays are 10 µM, 3 µM,1 µM and 0.3 µM, respectively. After 24 h or 48 h incubation at culture conditions, 10 µl medium containing Hoechst 33342 dye (Sigma B-2261) at 2-5 µg/ml are added to each well. The assay plates are then further incubated for 30 minutes and subsequently analyzed with a standard inverted fluorescence microscope. The readout allows the determination of the fraction of apoptotic nuclei as well as other morphological criteria specific for apoptosis as a function of the treatment. The following scores are used: 0 relating to no activity, 1 relating to weak activity comprising less than 50% of the cells and score 2 relating to strong activity comprising more than 50% of the cells.
# (§2) Caspase dependencies are being evaluated by combining the compound treatment with the pan-caspase inhibitor zVAD or its control peptide zFA (ICN Pharmaceuticals # FK009 and FK029, respectively). Both peptides are being used at 20 µM concentration. In case of caspase dependencies a clear inhibition of the specific readout in all apoptosis tests should be detected. By comparing the readout of zVAD and zFA treated samples with the compound control it is possible to detect caspase resp. cystein proteinase dependencies. In case of inhibition by zVAD but not by zFA a clear caspase dependency is obvious. An inhibition by zVAD as well as by zFA points towards the involvement of cystein proteinases in the apoptotic cascade. […]
# HeLa = assay: as above; set-up: key: 0: no effect; 1: weak effect; 2: strong effect
# Protocol: as §1, §2
# KB = assay: as above; set-up: key: 0: no effect; 1: weak effect; 2: strong effect
# Protocol: as §1, §2
# Jurkat = assay: as above; set-up: key: 0: no effect; 1: weak effect; 2: strong effect
# Protocol: as §1, §2
smiles,measurement,setting,value
"CC1(C)Cc2ccccc2-c2c(Br)c3nc4ccccc4nc3n21 [No. 2, 13-Bromo-6,6-dimethyl-5,6-dihydro-6a,7,12-triaza-dibenzo[a,h]fluorene]","Hoechst 33342 nuclear staining (fraction of apoptotic nuclei), score","SKMEL 1; SKMEL 1, 24h, 0.3 µM",0
same,"Hoechst 33342 nuclear staining (fraction of apoptotic nuclei), score","SKMEL 1; SKMEL 1, 24h, 1 µM",0
same,"Hoechst 33342 nuclear staining (fraction of apoptotic nuclei), score","SKMEL 1; SKMEL 1, 24h, 3 µM",0
same,"Hoechst 33342 nuclear staining (fraction of apoptotic nuclei), score","SKMEL 1; SKMEL 1, 24h, 10 µM",0
same,"Hoechst 33342 nuclear staining (fraction of apoptotic nuclei), score","SKMEL 1; SKMEL 1, 48h, 0.3 µM",0
same,"Hoechst 33342 nuclear staining (fraction of apoptotic nuclei), score","SKMEL 1; SKMEL 1, 48h, 1 µM",0
same,"Hoechst 33342 nuclear staining (fraction of apoptotic nuclei), score","SKMEL 1; SKMEL 1, 48h, 3 µM",0
same,"Hoechst 33342 nuclear staining (fraction of apoptotic nuclei), score","SKMEL 1; SKMEL 1, 48h, 10 µM",0
same,nuclear fragmentation visualized by Hoechst 33342 staining,"K562; K562, 24h, conc 10, no peptide",2
same,nuclear fragmentation visualized by Hoechst 33342 staining,"K562; K562, 24h, conc 10, with zFA 20 µM",2
same,nuclear fragmentation visualized by Hoechst 33342 staining,"K562; K562, 24h, conc 10, with zVAD 20 µM",2
same,nuclear fragmentation visualized by Hoechst 33342 staining,"K562; K562, 48h, conc 10, no peptide",2
same,nuclear fragmentation visualized by Hoechst 33342 staining,"K562; K562, 48h, conc 10, with zFA 20 µM",2
same,nuclear fragmentation visualized by Hoechst 33342 staining,"K562; K562, 48h, conc 10, with zVAD 20 µM",2
same,nuclear fragmentation visualized by Hoechst 33342 staining,"HeLa; 24h, conc 10, no peptide",2
same,nuclear fragmentation visualized by Hoechst 33342 staining,"HeLa; 24h, conc 10, with zFA 20 µM",2
same,nuclear fragmentation visualized by Hoechst 33342 staining,"HeLa; 24h, conc 10, with zVAD 20 µM",1
same,nuclear fragmentation visualized by Hoechst 33342 staining,"HeLa; 48h, conc 10, no peptide",2
same,nuclear fragmentation visualized by Hoechst 33342 staining,"HeLa; 48h, conc 10, with zFA 20 µM",2
same,nuclear fragmentation visualized by Hoechst 33342 staining,"HeLa; 48h, conc 10, with zVAD 20 µM",2
same,nuclear fragmentation visualized by Hoechst 33342 staining,"KB; 24h, conc 10, no peptide",2
same,nuclear fragmentation visualized by Hoechst 33342 staining,"KB; 24h, conc 10, with zFA 20 µM",1
same,nuclear fragmentation visualized by Hoechst 33342 staining,"KB; 24h, conc 10, with zVAD 20 µM",1
same,nuclear fragmentation visualized by Hoechst 33342 staining,"KB; 48h, conc 10, no peptide",2
same,nuclear fragmentation visualized by Hoechst 33342 staining,"KB; 48h, conc 10, with zFA 20 µM",2
same,nuclear fragmentation visualized by Hoechst 33342 staining,"KB; 48h, conc 10, with zVAD 20 µM",2
same,nuclear fragmentation visualized by Hoechst 33342 staining,"Jurkat; 24h, conc 3, no peptide",2
same,nuclear fragmentation visualized by Hoechst 33342 staining,"Jurkat; 24h, conc 3, with zFA 20 µM",2
same,nuclear fragmentation visualized by Hoechst 33342 staining,"Jurkat; 24h, conc 3, with zVAD 20 µM",2
same,nuclear fragmentation visualized by Hoechst 33342 staining,"Jurkat; 48h, conc 3, no peptide",2
same,nuclear fragmentation visualized by Hoechst 33342 staining,"Jurkat; 48h, conc 3, with zFA 20 µM",2
same,nuclear fragmentation visualized by Hoechst 33342 staining,"Jurkat; 48h, conc 3, with zVAD 20 µM",2
